# From ChEMBL document CHEMBL5308504, “Tm Shift (DSF) assay results for EUbOPEN Chemogenomics Library” (2023)
# Assays:
# [1] = target: Fibroblast growth factor receptor 3 (Homo sapiens) (UniProt P22607); conditions: Compound concentration 20.0 uM, Protein concentration 2.0 uM, Result type QC Liability
# Description: Thermal Shift Assay. Domain: start/stop: P449-E759
# Peregrin (Homo sapiens) = target: T1, Peregrin (Homo sapiens) (UniProt P55201); conditions: Compound concentration 20.0 uM, Protein concentration 2.0 uM, Result type QC Liability
# T1 sequence (whole entry): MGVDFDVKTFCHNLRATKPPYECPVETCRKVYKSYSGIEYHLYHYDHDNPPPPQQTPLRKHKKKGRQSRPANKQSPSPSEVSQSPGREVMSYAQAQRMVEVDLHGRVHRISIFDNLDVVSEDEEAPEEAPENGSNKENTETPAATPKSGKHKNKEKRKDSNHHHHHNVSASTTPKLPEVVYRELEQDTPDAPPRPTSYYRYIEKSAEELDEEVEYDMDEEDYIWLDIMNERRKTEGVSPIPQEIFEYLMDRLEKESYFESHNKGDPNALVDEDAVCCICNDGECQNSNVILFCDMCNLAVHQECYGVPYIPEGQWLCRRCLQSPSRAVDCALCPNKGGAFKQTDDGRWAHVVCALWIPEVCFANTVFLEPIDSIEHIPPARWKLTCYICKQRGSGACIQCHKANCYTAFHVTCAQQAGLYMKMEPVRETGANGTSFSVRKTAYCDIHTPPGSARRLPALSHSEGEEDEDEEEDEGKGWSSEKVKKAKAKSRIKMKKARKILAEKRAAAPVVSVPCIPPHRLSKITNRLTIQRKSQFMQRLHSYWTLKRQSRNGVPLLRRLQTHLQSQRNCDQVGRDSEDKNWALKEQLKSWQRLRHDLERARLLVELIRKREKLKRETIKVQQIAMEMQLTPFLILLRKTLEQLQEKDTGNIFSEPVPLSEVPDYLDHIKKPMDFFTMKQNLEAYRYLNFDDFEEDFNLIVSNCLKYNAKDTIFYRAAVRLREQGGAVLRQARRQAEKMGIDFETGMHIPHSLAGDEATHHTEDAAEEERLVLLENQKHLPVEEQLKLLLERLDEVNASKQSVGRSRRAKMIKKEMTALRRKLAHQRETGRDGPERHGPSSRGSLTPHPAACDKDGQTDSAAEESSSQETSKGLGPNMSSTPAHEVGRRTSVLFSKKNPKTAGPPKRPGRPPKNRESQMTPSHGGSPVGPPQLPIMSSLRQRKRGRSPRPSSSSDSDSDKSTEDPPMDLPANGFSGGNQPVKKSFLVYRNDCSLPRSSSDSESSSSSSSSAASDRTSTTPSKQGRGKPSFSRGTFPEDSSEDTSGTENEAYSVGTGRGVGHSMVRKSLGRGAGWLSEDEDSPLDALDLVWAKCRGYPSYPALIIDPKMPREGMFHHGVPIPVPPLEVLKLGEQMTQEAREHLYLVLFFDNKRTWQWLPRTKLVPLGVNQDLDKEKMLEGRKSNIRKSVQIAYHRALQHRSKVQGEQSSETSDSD
# Fibroblast growth factor receptor 3 (Homo sapiens), sequence (P22607 23-806 limits assumed): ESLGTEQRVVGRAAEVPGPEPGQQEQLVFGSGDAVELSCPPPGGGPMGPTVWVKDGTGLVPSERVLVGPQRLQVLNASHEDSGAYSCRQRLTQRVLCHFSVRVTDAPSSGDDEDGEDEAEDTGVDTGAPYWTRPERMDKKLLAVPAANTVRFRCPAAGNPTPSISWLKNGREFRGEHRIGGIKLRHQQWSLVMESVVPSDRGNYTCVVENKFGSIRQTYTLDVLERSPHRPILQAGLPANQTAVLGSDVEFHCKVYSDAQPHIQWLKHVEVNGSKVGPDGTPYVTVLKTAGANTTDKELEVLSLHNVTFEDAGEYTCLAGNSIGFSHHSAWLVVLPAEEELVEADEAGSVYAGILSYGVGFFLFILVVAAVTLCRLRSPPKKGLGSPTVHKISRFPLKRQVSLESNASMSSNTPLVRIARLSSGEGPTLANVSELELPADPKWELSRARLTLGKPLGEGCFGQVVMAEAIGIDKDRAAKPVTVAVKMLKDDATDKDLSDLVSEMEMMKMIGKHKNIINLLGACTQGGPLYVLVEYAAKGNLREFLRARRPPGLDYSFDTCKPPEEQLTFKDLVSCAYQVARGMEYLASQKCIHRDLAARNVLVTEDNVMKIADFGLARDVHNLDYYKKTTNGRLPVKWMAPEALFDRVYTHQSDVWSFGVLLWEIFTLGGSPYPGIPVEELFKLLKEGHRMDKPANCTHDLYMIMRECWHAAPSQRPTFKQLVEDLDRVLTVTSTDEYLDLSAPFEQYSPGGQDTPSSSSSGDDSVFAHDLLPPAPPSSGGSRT
Structure (SMILES),ΔTm [1],ΔTm (Peregrin (Homo sapiens))
COc1cc2nc(C)nc(N[C@H](C)c3cc(N)cc(C(F)(F)F)c3)c2cc1O[C@H]1CCOC1,0.66 °C,-3.07 °C
CN(C)[C@H]1CC[C@H](Nc2ncc3ncnc(Nc4ccc(F)c(Cl)c4)c3n2)CC1,0.8 °C,1.59 °C
CC(C)(C)OC(=O)CN1C(=O)c2c(OCC(=O)O)cccc2Oc2ccc(C(F)(F)F)cc21,0.75 °C,-3.16 °C
CNC(=O)c1cc(C(=O)N[C@H]2[C@@H]3COC[C@@H]32)cc2c1O[C@@H](CF)[C@@H]2c1ccccc1,0.48 °C,-1.16 °C
CCN1CCN(Cc2ccc(C(=O)Nc3ccc(C)c(Oc4ccc5c(c4)CC(=O)N5)c3)cc2C(F)(F)F)CC1,3.22 °C,-1.47 °C
COc1ccc(Br)cc1S(=O)(=O)NC(=O)/C=C/c1cc(Cl)ccc1Cc1ccc2ccccc2c1,0.7 °C,-10.6 °C
CCc1nc(-c2cccc(C)c2)c(-c2ccnc(NC(=O)c3ccccc3)c2)s1,-0.84 °C,-2.72 °C
O=C(O)C[C@H]1CC[C@H](c2ccc(NC(=O)c3nnc(Nc4ccc(F)c(F)c4)o3)cc2)CC1,0.79 °C,-2.89 °C
Fc1ccc(Cl)cc1-c1nc(Nc2ccncc2)c2nccnc2n1,0.54 °C,-0.76 °C
CCCCCCCC/C=C\CCCCCCCC(=O)NCCO,1.23 °C,-0.91 °C
CC(C)(C)c1cc(NC(=O)c2csc(Nc3ccc(Cl)cc3)n2)no1,1.46 °C,-0.02 °C
COc1cc(C(N)=O)ccc1Nc1ncc2c(n1)N(CCC(C)C)[C@H](C)C(=O)N2C,1.76 °C,1.82 °C
C[C@H](CCC(=O)O)[C@H]1CC[C@H]2[C@@H]3CC[C@@H]4C[C@H](O)CC[C@]4(C)[C@H]3CC[C@]12C,-0.33 °C,-3.84 °C
CC(C)C[C@H](NC(=O)[C@@H](O)[C@H](N)Cc1ccccc1)C(=O)O,0.78 °C,-2.93 °C
CN1CCN(c2ccc(/C=C(\C#N)c3ccccc3Br)cc2)CC1,1.23 °C,-2.48 °C
NC1(c2ccc(-c3nc4c(O)ccnn4c3-c3ccccc3)cc2)CCC1,0.79 °C,0.22 °C
Cc1[nH]c2c(N3CCCCC3)c(-c3ccccc3)nn2c(=O)c1-c1ccc(O)cc1,0.67 °C,-2.87 °C
COCc1nc2cnc3cc(-c4c(C)noc4C)c(OC[C@H]4CCNC4)cc3c2n1[C@H](C)c1ccccc1,0.6 °C,-1.65 °C
CC#CC(=O)N1CCN(c2nc(-c3ccc(Oc4ccccc4)cc3)c(C(N)=O)s2)CC1,-1.02 °C,-1.23 °C
CC[C@@H](CO)Nc1nc(Nc2cccc(NC(=O)C(C)(C)C)c2)ncc1F,2.58 °C,-1.26 °C

Structure (SMILES),ΔTm [1],ΔTm (Peregrin (Homo sapiens))
Cc1c(CN2CCC3(CC2)CN(c2ncnc4sc(CC(F)(F)F)cc24)C3)ccc2c1cc(C#N)n2CC(N)=O,0.67 °C,-1.41 °C
Cc1cc(OC2CCS(=O)(=O)CC2)cc(C)c1-c1cccc(COc2ccc(C(=O)O)c(F)c2)c1,1.28 °C,-2.62 °C
Cc1nnc2n1-c1sc3c(c1C(c1ccccc1Cl)=NC2)C[C@@H](C(=O)N1CCOCC1)C3,0.58 °C,-1.96 °C
CCCCCCC(Sc1nc(Cl)cc(NCc2ccc(-c3ccccc3)cc2)n1)C(=O)O (stereo not drawn),0.79 °C,-6.38 °C
CC(C)(C)NC(=O)c1cncn1C1CCN(c2ccc(-c3nnc(C(F)(F)F)o3)cn2)CC1,0.91 °C,-2.22 °C
O=C(O)c1ccc(OCCCc2ccc(OCCCCOC3CCCCC3)cc2)c(C(=O)NC2CCCC(C(=O)O)C2)c1 (stereo not drawn),0.54 °C,-4.19 °C
CC(=O)N(CCN(C)C)c1ccc(N/C(=C2\C(=O)Nc3cc(Cl)ccc32)c2ccccc2)cn1,7.35 °C,-1.84 °C
CNc1ncc2cc(-c3ccc(-c4ncccc4F)cc3Cl)c(=O)n(C[C@H]3OC[C@H](N)CO3)c2n1,2.03 °C,-1.11 °C
CS(C)(=O)=Nc1ccc(-c2ccc(-c3nc4[nH]c(O[C@@H]5CO[C@H]6[C@@H]5OC[C@H]6O)nc4cc3Cl)cc2)cc1,0.49 °C,-3.2 °C
Cc1cccc(-c2[nH]c(CNc3ccccc3F)nc2-c2ccc3ncnn3c2)n1,4.08 °C,0.68 °C
COc1c(OCCCN2CCOCC2)ccc2c1N=C(NC(=O)c1cnc(N)nc1)N1CCN=C21,0.63 °C,-0.93 °C
Cc1cc(-c2cnc(N)c3c(-c4ccc5scnc5c4)csc23)n(C)n1,0.89 °C,-1.57 °C
COc1c(-c2cn(C3CCC(=O)NC3=O)nn2)csc1C(=O)N1CCCC1 (stereo not drawn),0.59 °C,-1.52 °C
COc1cc(-c2nn([C@H]3CC[C@H](N4CCN(C(C)=O)CC4)CC3)c3ncnc(N)c23)ccc1NC(=O)c1cc2ccccc2n1C,0.83 °C,-2.71 °C
C=C[C@@]12CCc3cc(O)ccc3[C@H]1CC[C@@]1(C)[C@H]2CC[C@@H]1O,0.31 °C,-6.72 °C
CCOC(=O)C1Cc2ccccc2CN1C(=O)c1ccc(SC)s1 (stereo not drawn),0.41 °C,-1.13 °C
Fc1ccc(-c2nc(-c3ccc4ccccc4c3F)[nH]c2-c2ccncc2)cc1,1.19 °C,0.17 °C
CC1CCN(C(=O)[C@@H](CCn2cccc2C#N)NS(=O)(=O)c2cccc3[nH]ccc23)CC1,0.36 °C,-3.16 °C
Cn1cc(NC(=O)c2ccc3nc4n(c3c2)CCCNC4=O)nc1C(=O)NC1CCCC1,1.76 °C,-0.88 °C
CCCCNc1ncc2c(-c3ccc(CN4CCN(C)CC4)cc3)cn([C@H]3CC[C@H](O)CC3)c2n1,7.9 °C,-3.2 °C

Structure (SMILES),ΔTm [1],ΔTm (Peregrin (Homo sapiens))
Cc1cc(=O)n(C)c2cc(N3C(=O)CC[C@H](NS(=O)(=O)CC(C)C)[C@H]3c3ccc(Cl)cc3)ccc12,0.86 °C,-0.8 °C
Fc1cccc(-n2cnc3c(NCc4nc5c(F)c(F)ccc5[nH]4)nc(N4CCOCC4)nc32)c1,-0.16 °C,-0.08 °C
O=C(O)c1cc(F)c2nc(N3[C@@H]4CC[C@H]3C[C@@H](OCc3c(-c5ccccc5OC(F)(F)F)noc3C3CC3)C4)sc2c1,-3.83 °C,-2.96 °C
COc1cc2nc([C@@H]3CCCS(=O)(=O)C3)n(C)c2cc1NC(=O)c1cccc(C(C)(F)F)n1,0.66 °C,-2.41 °C
CC(=O)N1CCC(c2ccc(C(=O)NC(=N)N)cc2C(F)(F)F)CC1,1.29 °C,-2.69 °C
COc1cc(-c2cn(C)c(=O)c3cnccc23)c(OC)cc1CN(C)C,0.84 °C,0.44 °C
CCCNc1ccc2ncc(-c3ccncc3)n2n1,3.37 °C,0.26 °C
Cc1nc2c(cc1F)c(-c1nnc3c(n1)NC(=O)C3(C)C)nn2Cc1cccc(F)c1F,0.5 °C,-2.09 °C
CCCn1cc(-c2cc(C3C(=O)N(CC)c4ccc(C(F)(F)F)cc4N(c4ccccc4)C3=O)cc(OC)c2O)cn1 (stereo not drawn),0.46 °C,-1.21 °C
Cc1cc(=O)oc2cc(NC(=O)[C@H](Cc3ccc(I)cc3)NC(=O)[C@H]3N[C@@H]4CC[C@H]3C4)ccc12,0.37 °C,-1.46 °C
COc1cc(N(C)c2ccnc3ccc(C(F)(F)F)cc23)cc(OC)c1OC,0.76 °C,-1.93 °C
CCCS(=O)(=O)N[C@H]1C[C@@H](N(C)c2ncnc3[nH]ccc23)C1,1.73 °C,-1.75 °C
CC(C)Nc1ncnc2cc(OCc3cccc([S@@](C)(=N)=O)c3)c(Br)cc12,1.64 °C,-2.23 °C
CC(=O)O[C@H]1C(=O)[C@@]2(C)[C@H]([C@H](OC(=O)c3ccccc3)[C@]3(O)C[C@H](OC(=O)[C@H](O)[C@@H](NC(=O)c4ccccc4)c4ccccc4)C(C)=C1C3(C)C)[C@]1(OC(C)=O)CO[C@@H]1C[C@@H]2O,0.44 °C,-2.68 °C
CS(=O)(=O)c1ccc(-c2cnc(N)c(C(=O)Nc3ccccc3)n2)cc1,1.51 °C,-1.36 °C
COc1ccccc1N1CCN(c2ncnc3c2cnn3-c2ccccc2)CC1,0.51 °C,-1.23 °C
CN[C@@H](C)C(=O)N[C@H](C(=O)N1CCC[C@H]1C(=O)N[C@H]1c2ccccc2C[C@H]1OCC#CC#CCO[C@@H]1Cc2ccccc2[C@@H]1NC(=O)[C@@H]1CCCN1C(=O)[C@@H](NC(=O)[C@H](C)NC)C1CCCCC1)C1CCCCC1,1.42 °C,-2.65 °C
C[C@@H]1Cc2c([nH]c3ccccc23)[C@@H](c2c(F)cc(/C=C/C(=O)O)cc2F)N1CC(C)(C)F,0.58 °C,-4.53 °C
C=CC(=O)N1CCC[C@@H](n2nc(-c3ccc(Oc4ccccc4)cc3)c3c(N)ncnc32)C1,-1.1 °C,-1.17 °C
